# Laboratory results as given in PubChem BioAssay (NCI).
#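 How tested: cells in 96-well plates exposed to compound for 48 hours at five concentrations. The concentration for full growth arrest is given as TGI.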
# Key:
# Assay in all cases: NCI anticancer screen, dose series, 48 h
# 786-0 renal = tested on: 786-0 renal
# A498 renal = tested on: A498 renal
# A549 NSCLC = tested on: A549 NSCLC
# ACHN renal = tested on: ACHN renal
# BT-549 breast = tested on: BT-549 breast
# CAKI-1 renal = tested on: CAKI-1 renal
# CCRF-CEM leukemia = tested on: CCRF-CEM leukemia
# COLO 205 colon = tested on: COLO 205 colon
# DU-145 prostate = tested on: DU-145 prostate
# EKVX NSCLC = tested on: EKVX NSCLC
# HCC-2998 colon = tested on: HCC-2998 colon
# HCT-116 colon = tested on: HCT-116 colon
# HCT-15 colon = tested on: HCT-15 colon
# HL-60(TB) leukemia = tested on: HL-60(TB) leukemia
# HOP-62 NSCLC = tested on: HOP-62 NSCLC
# HS 578T breast = tested on: HS 578T breast
# HT29 colon = tested on: HT29 colon
# IGROV1 ovarian = tested on: IGROV1 ovarian
# K-562 leukemia = tested on: K-562 leukemia
# KM12 colon = tested on: KM12 colon
# LOX IMVI melanoma = tested on: LOX IMVI melanoma
# M14 melanoma = tested on: M14 melanoma
# MALME-3M melanoma = tested on: MALME-3M melanoma
# MCF7 breast = tested on: MCF7 breast
# MDA-MB-231 breast = tested on: MDA-MB-231 breast
# MDA-MB-435 = tested on: MDA-MB-435
# MDA-N = tested on: MDA-N
# MOLT-4 leukemia = tested on: MOLT-4 leukemia
# NCI-H226 lung = tested on: NCI-H226 lung
# NCI-H23 lung = tested on: NCI-H23 lung
# NCI-H460 lung = tested on: NCI-H460 lung
# NCI-H522 lung = tested on: NCI-H522 lung
# NCI/ADR-RES ovarian = tested on: NCI/ADR-RES ovarian
# OVCAR-3 ovarian = tested on: OVCAR-3 ovarian
# OVCAR-4 ovarian = tested on: OVCAR-4 ovarian
# OVCAR-5 ovarian = tested on: OVCAR-5 ovarian
# OVCAR-8 ovarian = tested on: OVCAR-8 ovarian
# PC-3 prostate = tested on: PC-3 prostate
# RPMI-8226 leukemia = tested on: RPMI-8226 leukemia
# RXF 393 renal = tested on: RXF 393 renal
# SF-268 CNS = tested on: SF-268 CNS
# SF-295 CNS = tested on: SF-295 CNS
# SK-MEL-2 melanoma = tested on: SK-MEL-2 melanoma
# SK-MEL-28 melanoma = tested on: SK-MEL-28 melanoma
# SK-MEL-5 melanoma = tested on: SK-MEL-5 melanoma
# SK-OV-3 ovarian = tested on: SK-OV-3 ovarian
# SN12C renal = tested on: SN12C renal
# SNB-19 CNS = tested on: SNB-19 CNS
# SNB-75 CNS = tested on: SNB-75 CNS
# SR leukemia = tested on: SR leukemia
# SW-620 colon = tested on: SW-620 colon
# T-47D breast = tested on: T-47D breast
# U251 CNS = tested on: U251 CNS
# UACC-62 melanoma = tested on: UACC-62 melanoma
# UO-31 renal = tested on: UO-31 renal
# TK-10 renal = tested on: TK-10 renal
# UACC-257 melanoma = tested on: UACC-257 melanoma
compound,measurement,setting,value
Cn1c2ccccc2n2c3ncccc3c(=NCCCC(=O)O)c(C#N)c12,TGI,786-0 renal,> 100 µM
same,TGI,A498 renal,> 100 µM
same,TGI,A549 NSCLC,> 100 µM
same,TGI,ACHN renal,> 100 µM
same,TGI,BT-549 breast,> 100 µM
same,TGI,CAKI-1 renal,> 100 µM
same,TGI,CCRF-CEM leukemia,> 100 µM
same,TGI,COLO 205 colon,> 100 µM
same,TGI,DU-145 prostate,> 100 µM
same,TGI,EKVX NSCLC,> 100 µM
same,TGI,HCC-2998 colon,> 100 µM
same,TGI,HCT-116 colon,> 100 µM
same,TGI,HCT-15 colon,> 100 µM
same,TGI,HL-60(TB) leukemia,> 100 µM
same,TGI,HOP-62 NSCLC,> 100 µM
same,TGI,HS 578T breast,> 100 µM
same,TGI,HT29 colon,> 100 µM
same,TGI,IGROV1 ovarian,> 100 µM
same,TGI,K-562 leukemia,> 100 µM
same,TGI,KM12 colon,> 100 µM
same,TGI,LOX IMVI melanoma,> 100 µM
same,TGI,M14 melanoma,> 100 µM
same,TGI,MALME-3M melanoma,> 100 µM
same,TGI,MCF7 breast,> 100 µM
same,TGI,MDA-MB-231 breast,> 100 µM
same,TGI,MDA-MB-435,> 100 µM
same,TGI,MDA-N,> 100 µM
same,TGI,MOLT-4 leukemia,> 100 µM
same,TGI,NCI-H226 lung,> 100 µM
same,TGI,NCI-H23 lung,> 100 µM
same,TGI,NCI-H460 lung,> 100 µM
same,TGI,NCI-H522 lung,> 100 µM
same,TGI,NCI/ADR-RES ovarian,> 100 µM
same,TGI,OVCAR-3 ovarian,> 100 µM
same,TGI,OVCAR-4 ovarian,> 100 µM
same,TGI,OVCAR-5 ovarian,> 100 µM
same,TGI,OVCAR-8 ovarian,> 100 µM
same,TGI,PC-3 prostate,> 100 µM
same,TGI,RPMI-8226 leukemia,> 100 µM
same,TGI,RXF 393 renal,> 100 µM
same,TGI,SF-268 CNS,> 100 µM
same,TGI,SF-295 CNS,> 100 µM
same,TGI,SK-MEL-2 melanoma,> 100 µM
same,TGI,SK-MEL-28 melanoma,> 100 µM
same,TGI,SK-MEL-5 melanoma,> 100 µM
same,TGI,SK-OV-3 ovarian,> 100 µM
same,TGI,SN12C renal,> 100 µM
same,TGI,SNB-19 CNS,> 100 µM
same,TGI,SNB-75 CNS,> 100 µM
same,TGI,SR leukemia,> 100 µM
same,TGI,SW-620 colon,> 100 µM
same,TGI,T-47D breast,> 100 µM
same,TGI,U251 CNS,> 100 µM
same,TGI,UACC-62 melanoma,> 100 µM
same,TGI,UO-31 renal,> 100 µM
O=C1NC(=S)N/C1=C\c1cc2c(=O)c3ccccc3sc2s1,TGI,786-0 renal,> 100 µM
same,TGI,A498 renal,> 100 µM
same,TGI,ACHN renal,> 100 µM
same,TGI,BT-549 breast,> 100 µM
same,TGI,CAKI-1 renal,> 100 µM
same,TGI,COLO 205 colon,> 100 µM
same,TGI,DU-145 prostate,> 100 µM
same,TGI,EKVX NSCLC,> 100 µM
same,TGI,HCC-2998 colon,> 100 µM
same,TGI,HCT-116 colon,> 100 µM
same,TGI,HCT-15 colon,> 100 µM
same,TGI,HL-60(TB) leukemia,> 100 µM
same,TGI,HOP-62 NSCLC,> 100 µM
same,TGI,HS 578T breast,> 100 µM
same,TGI,HT29 colon,> 100 µM
same,TGI,IGROV1 ovarian,> 100 µM
same,TGI,K-562 leukemia,> 100 µM
same,TGI,KM12 colon,> 100 µM
same,TGI,LOX IMVI melanoma,> 100 µM
same,TGI,MALME-3M melanoma,> 100 µM
same,TGI,MCF7 breast,> 100 µM
same,TGI,MDA-MB-231 breast,> 100 µM
same,TGI,MDA-MB-435,> 100 µM
same,TGI,MDA-N,> 100 µM
same,TGI,MOLT-4 leukemia,69.5 µM
same,TGI,NCI-H226 lung,> 100 µM
same,TGI,NCI-H23 lung,> 100 µM
same,TGI,NCI-H460 lung,> 100 µM
same,TGI,NCI-H522 lung,> 100 µM
same,TGI,NCI/ADR-RES ovarian,> 100 µM
same,TGI,OVCAR-3 ovarian,> 100 µM
same,TGI,OVCAR-4 ovarian,> 100 µM
same,TGI,OVCAR-5 ovarian,> 100 µM
same,TGI,OVCAR-8 ovarian,> 100 µM
same,TGI,PC-3 prostate,> 100 µM
same,TGI,RPMI-8226 leukemia,> 100 µM
same,TGI,RXF 393 renal,> 100 µM
same,TGI,SF-268 CNS,> 100 µM
same,TGI,SF-295 CNS,> 100 µM
same,TGI,SK-MEL-2 melanoma,> 100 µM
same,TGI,SK-MEL-28 melanoma,> 100 µM
same,TGI,SK-MEL-5 melanoma,> 100 µM
same,TGI,SN12C renal,> 100 µM
same,TGI,SNB-19 CNS,> 100 µM
same,TGI,SNB-75 CNS,72 µM
same,TGI,SR leukemia,> 100 µM
same,TGI,SW-620 colon,> 100 µM
same,TGI,T-47D breast,> 100 µM
same,TGI,TK-10 renal,> 100 µM
same,TGI,U251 CNS,> 100 µM
same,TGI,UACC-257 melanoma,> 100 µM
same,TGI,UACC-62 melanoma,> 100 µM
same,TGI,UO-31 renal,> 100 µM
